ChEMBL document CHEMBL2074474, “Prodrugs of purine and pyrimidine analogues for the intestinal di/tri-peptide transporter PepT1: affinity for hPepT1 in Caco-2 cells, drug release in aqueous media and in vitro metabolism” (J Control Release, 2003)

Target: T1, Solute carrier family 15 member 1 (Homo sapiens, UniProt P46059)
T1 sequence (P46059 whole entry): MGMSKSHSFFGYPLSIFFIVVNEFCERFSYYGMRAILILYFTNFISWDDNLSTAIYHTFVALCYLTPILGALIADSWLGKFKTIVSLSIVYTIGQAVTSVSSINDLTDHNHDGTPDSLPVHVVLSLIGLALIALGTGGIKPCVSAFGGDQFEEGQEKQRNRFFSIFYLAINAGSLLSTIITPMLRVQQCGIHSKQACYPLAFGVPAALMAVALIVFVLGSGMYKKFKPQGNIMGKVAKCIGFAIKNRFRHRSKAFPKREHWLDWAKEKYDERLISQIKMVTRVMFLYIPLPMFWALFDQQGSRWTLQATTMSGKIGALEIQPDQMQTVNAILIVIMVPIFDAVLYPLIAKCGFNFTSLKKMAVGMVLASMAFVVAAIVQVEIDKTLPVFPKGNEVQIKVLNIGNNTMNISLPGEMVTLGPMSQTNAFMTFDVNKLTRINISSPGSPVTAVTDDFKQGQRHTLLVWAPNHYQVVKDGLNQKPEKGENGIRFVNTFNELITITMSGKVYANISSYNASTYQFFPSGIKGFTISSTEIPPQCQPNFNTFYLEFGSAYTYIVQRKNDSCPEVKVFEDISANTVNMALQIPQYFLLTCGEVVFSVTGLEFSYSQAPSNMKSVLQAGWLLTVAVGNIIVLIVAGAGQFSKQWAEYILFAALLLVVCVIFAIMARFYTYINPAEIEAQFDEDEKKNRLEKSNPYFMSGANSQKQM
Assay: TP_TRANSPORTER: inhibition of Gly-Sar uptake in Caco-2 cells
Assay type: functional, cell-based

Ki [µM] | SMILES
280 | CN(CC(=O)O)C(=O)[C@@H](N)CCC(=O)OCCOCn1cnc2c(=O)[nH]c(N)nc21
210 | Cc1cn(COC(=O)C(O)C[C@H](N)C(=O)N(C)CC(=O)O)c(=O)[nH]c1=O (some centres not stated)
